# Source: patent publication EP1147080B1 (Wyeth Holdings Corporation, priority 1999, dated 2000)
# Where two headings read alike, the source gives them in different places.
# Assays:
# THP-1 cells = assay: Human monocytic THP-1 cell differentiation assay for soluble proteins (THP soluble protein assay), LPS-stimulated, TNF-α ELISA; type: cell-based; settings: for inhibition at 3 µM: Homo sapiens, THP-1; at 3 uM; percent change from vehicle positive control; read-out: TNFalpha at 3 uM) THP (percent change); for THP (% inhibition): Table 1, concentration not given
# MMP-1 = target: T1, MMP-1 (Homo sapiens, UniProt P03956); assay: MMP-1 inhibition (thiopeptide or fluorescent peptide substrate); settings: for inhibition at 10 µM: read-out: MMP1
# T1 sequence (P03956 100-469): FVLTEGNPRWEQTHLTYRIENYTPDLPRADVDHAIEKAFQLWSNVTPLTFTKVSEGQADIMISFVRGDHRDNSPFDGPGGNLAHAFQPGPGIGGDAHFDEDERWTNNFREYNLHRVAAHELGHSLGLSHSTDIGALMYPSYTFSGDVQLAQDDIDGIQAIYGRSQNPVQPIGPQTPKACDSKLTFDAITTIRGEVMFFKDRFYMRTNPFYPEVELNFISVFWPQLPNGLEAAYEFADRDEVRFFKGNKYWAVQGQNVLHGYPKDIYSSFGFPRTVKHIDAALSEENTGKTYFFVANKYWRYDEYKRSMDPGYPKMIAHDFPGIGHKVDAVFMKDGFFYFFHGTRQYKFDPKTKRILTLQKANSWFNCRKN
# Procedure: (§1) The enzyme activity is measured by the rate of the color increase. The thiopeptide substrate is made up fresh as a 20 mM stock in 100% DMSO and the DTNB is dissolved in 100% DMSO as a 100 mM stock and stored in the dark at room temperature. Both the substrate and DTNB are diluted together to 1 mM with substrate buffer (50 mM HEPES pH 7.5, 5 mM CaCl2) before use. The stock of enzyme is diluted with buffer (50 mM HEPES, pH 7.5, 5 mM CaCl2, 0.02% Brij) to the desired final concentration.
# (§2) Alternatively, a fluorescent peptide substrate is used. In this test procedure, the peptide substrate contains a fluorescent group and a quenching group. Upon cleavage of the substrate by an MMP, the fluorescence that is generated is quantitated on the fluorescence plate reader. The assay is run in HCBC assay buffer (50mM HEPES, pH 7.0, 5 mM Ca^+2, 0.02% Brij, 0.5% Cysteine), with human recombinant MMP-1, MMP-9, or MMP-13. The substrate is dissolved in methanol and stored frozen in 1 mM aliquots. For the assay, substrate and enzymes are diluted in HCBC buffer to the desired concentrations. Compounds are added to the 96 well plate containing enzyme and the reaction is started by the addition of substrate.
# (§3) For either the thiopeptide or fluorescent peptide test procedures, the slope of the line is calculated and represents the reaction rate. […] The mean (x±sem) of the control rate is calculated and compared for statistical significance (p<0.05) with drug-treated rates using Dunnett's multiple comparison test.
# MMP-13 = MMP-13 (Homo sapiens, UniProt P45452); assay: MMP-13 inhibition (thiopeptide or fluorescent peptide substrate); type: biochemical; settings: for inhibition at 10 µM / MMP13: % @ 10µM per footnote a
# From the text: Alternatively, a fluorescent peptide substrate is used.
# MMP-9 = MMP-9 (Homo sapiens, UniProt P14780); assay: MMP-9 inhibition (thiopeptide or fluorescent peptide substrate); settings: for inhibition at 10 µM: read-out: MMP9
# Procedure: as §1, §2, §3
# [1] = target: TNF-α converting enzyme (TACE) (Homo sapiens, UniProt P78536); assay: Test procedure for measuring TACE inhibition (fluorescent peptidyl substrate); type: biochemical
# [2] = second table, IC50 (nM) per footnote a
# MMP-9, sequence (P14780 94-707): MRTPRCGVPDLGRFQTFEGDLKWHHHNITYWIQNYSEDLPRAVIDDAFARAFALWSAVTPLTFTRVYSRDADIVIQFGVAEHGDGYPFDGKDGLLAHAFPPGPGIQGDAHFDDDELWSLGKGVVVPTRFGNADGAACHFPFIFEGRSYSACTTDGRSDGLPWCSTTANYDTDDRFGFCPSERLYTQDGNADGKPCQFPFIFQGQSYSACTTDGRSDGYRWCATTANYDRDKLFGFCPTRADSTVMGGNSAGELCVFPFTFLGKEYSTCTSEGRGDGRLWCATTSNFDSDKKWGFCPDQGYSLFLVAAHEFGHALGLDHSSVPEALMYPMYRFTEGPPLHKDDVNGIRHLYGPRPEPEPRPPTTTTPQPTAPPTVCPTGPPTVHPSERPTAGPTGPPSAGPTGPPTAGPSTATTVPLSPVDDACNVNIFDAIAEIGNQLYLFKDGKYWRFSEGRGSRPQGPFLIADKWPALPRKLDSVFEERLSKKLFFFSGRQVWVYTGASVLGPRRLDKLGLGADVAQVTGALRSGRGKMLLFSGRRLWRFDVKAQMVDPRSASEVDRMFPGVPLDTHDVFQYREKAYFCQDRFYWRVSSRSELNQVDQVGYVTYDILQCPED
# TNF-α converting enzyme (TACE), sequence (P78536 215-824): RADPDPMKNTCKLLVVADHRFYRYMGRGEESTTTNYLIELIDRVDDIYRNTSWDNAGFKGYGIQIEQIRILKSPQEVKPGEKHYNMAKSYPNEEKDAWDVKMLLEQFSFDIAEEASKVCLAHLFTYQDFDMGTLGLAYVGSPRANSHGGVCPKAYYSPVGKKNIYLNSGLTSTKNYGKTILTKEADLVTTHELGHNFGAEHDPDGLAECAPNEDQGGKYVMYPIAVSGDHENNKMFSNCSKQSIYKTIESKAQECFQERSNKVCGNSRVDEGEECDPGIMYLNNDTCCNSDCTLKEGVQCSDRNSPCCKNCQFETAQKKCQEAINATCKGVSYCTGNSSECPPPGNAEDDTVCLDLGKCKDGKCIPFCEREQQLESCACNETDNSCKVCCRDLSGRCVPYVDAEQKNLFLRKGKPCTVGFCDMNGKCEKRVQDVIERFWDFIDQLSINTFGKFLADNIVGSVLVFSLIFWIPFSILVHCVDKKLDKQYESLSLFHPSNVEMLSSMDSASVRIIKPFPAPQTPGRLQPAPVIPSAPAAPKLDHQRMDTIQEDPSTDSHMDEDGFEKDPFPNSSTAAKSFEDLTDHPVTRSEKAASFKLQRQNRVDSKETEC
inhibition at 10 µM (MMP-1),inhibition at 10 µM (MMP-13; read-out: MMP13),inhibition at 10 µM (MMP-9),IC50 (MMP-1),IC50 (MMP-9),"IC50 [1, 2]",SMILES,inhibition at 3 µM (THP-1 cells),also measured
3%,26.8%,21.6%,,,,"CC#CCOc1ccc(SC(C(=O)NO)c2ccc(OC)cc2)cc1 (centres unmarked) [Example 76, 2-{[4-(2-butynyloxy)phenyl]sulfanyl}-N-hydroxy-2-(4-methoxyphenyl) acetamide]",15%,
,,,3000 nM,1500 nM,,"CC#CCOc1ccc([S@+]([O-])[C@@H](CCCCCC)C(=O)NO)cc1 [Example 7, (S)-2-[(R)-[4-(2-Butynyloxy)phenylsulfinyl)]-N-hydroxyoctanamide]",,"THP (% inhibition) (THP-1 cells): 67%; IC50 ([1]; Table 1): 4.3 nM; IC50 (MMP-13; Table 1, read-out: MMP13 IC50): 900 nM"
,,,,,,"CC#CCOc1ccc([S+]([O-])C(C(=O)NO)c2ccccc2)cc1 (single isomer, unassigned) [Example 113, S-2-{[4-(2-butynyloxy)phenyl]sulfinyl}-2-phenyl-N-hydroxyacetamide]",,MMP1 (MMP-1): 6.20%; MMP13 (MMP-13): 59%; MMP9 (MMP-9): 25.70%
,,,3200 nM,1000 nM,,"CC#CCOc1ccc([S@@+]([O-])[C@@H](CCCCCC)C(=O)NO)cc1 [Example 8, (S)-2-[(S)-[4-(2-Butynyloxy)phenylsulfinyl)]-N-hydroxyoctanamide]",,"THP (% inhibition) (THP-1 cells): 35%; IC50 ([1]; Table 1): 12.4 nM; IC50 (MMP-13; Table 1, read-out: MMP13 IC50): 150 nM"
,,,6480 nM,399 nM,,"CC#CCOc1ccc([S+]([O-])C(C(=O)NO)C(C)C)cc1 (centres unmarked) [Example 108, R-2-{[4-(2-butynylaxy)phenyl]sulfinyl}-2-isopropyl-N-hydroxyacetamide]",,
9%,26%,5.7%,,,,CC#CCOc1ccc(SC(C(=O)NO)c2ccc(F)cc2)cc1 (centres unmarked) [Example 95],-7%,
9.9%,23.6%,8.2%,,,28 nM,"CC#CCOc1ccc([S+]([O-])[C@@H](C(=O)NO)c2ccccc2)cc1 (some centres unmarked) [Example 112, R-2-{[4-(2-butynyloxy)phenyl]sulfinyl}-2-phenyl-N-hydroxyacetamide]",15%,
,,,,,,"CC#CCOc1ccc([S+]([O-])[C@@H](C(=O)NO)c2ccc(OC)cc2)cc1 (single isomer, unassigned) [Example 77]",,MMP1 (MMP-1; % @ 10µM per footnote a): 17.50%; MMP9 (MMP-9): 45.40%
27.1%,,38%,,,108 nM,"CC#CCOc1ccc(S(=O)(=O)C(C(=O)NO)c2ccc(Cl)cc2)cc1 (centres unmarked) [Example 82, 2-{[4-(2-butynyloxy)phenyl]sulfonyl}-2-(4-chlorophenyl)-N-hydroxyacetamide]",14%,"IC50 (MMP-13; IC50, read-out: MMP13): 5060 nM"
,,,2200 nM,207 nM,,"CC#CCOc1ccc(S(=O)(=O)C(C)(Cc2ccc(-c3ccccc3)cc2)C(=O)NO)cc1 (centres unmarked) [Example 2, 3-Biphenyl-4-yl-2-(4-But-2-ynyloxy-phenylsulfonyl)-N-hydroxy-2-methyl-propionamide]",,"THP (% inhibition) (THP-1 cells): 5%; IC50 ([1]; Table 1): 207 nM; IC50 (MMP-13; Table 1, read-out: MMP13 IC50): 597 nM"
46.2%,,,,1360 nM,14.2 nM,"CC#CCOc1ccc(S(=O)(=O)C(CCCCCC#N)C(=O)NO)cc1 (centres unmarked) [Example 72, 2-{[4-(2-butynyloxy)phenyl]sulfonyl}-7-cyano-N-hydroxy heptanamide]",54%,"IC50 (MMP-13; IC50, read-out: MMP13): 341 nM"
2.8%,59.4%,56.8%,,,157 nM,"CC#CCOc1ccc(SC(C(=O)NO)C(C)C)cc1 (centres unmarked) [Example 107, 2-{[4-(2-Butynyloxy)phenyl]sulfanyl}-2-isopropyl-N-hydroxyacetamide]",-13%,
,,,2000 nM,180 nM,,"CC#CCOc1ccc(S(=O)(=O)C(C)(Cc2ccc(OCCN3CCCCC3)cc2)C(=O)NO)cc1 (centres unmarked) [Example 1, 2-(4-But-2-ynyloxy-benzenesulfonyl)-N-hydroxy-2-methyl-3-[4-(2-piperidin-1-yl-ethoxy)-phenyl]-propionamide]",,"THP (% inhibition) (THP-1 cells): 25%; IC50 ([1]; Table 1): 191 nM; IC50 (MMP-13; Table 1, read-out: MMP13 IC50): 200 nM"
,,,,,,CC#CCOc1ccc([S+]([O-])C(C(=O)NO)c2ccc(F)cc2)cc1 (centres unmarked) [Example 96],,MMP1 (MMP-1; % @ 10µM per footnote a): 18.40%; MMP13 (MMP-13): 53.40%; MMP9 (MMP-9; % @ 10µM per footnote a): 0%
,,,10000 nM,2510 nM,,CC#CCOc1ccc(S(=O)(=O)C(CCc2ccc(OCCN3CCCCC3)cc2)C(=O)NO)cc1 (centres unmarked) [Example 71],11%,"IC50 (MMP-13; IC50, read-out: MMP13): 894 nM"
0%,48.8%,10.9%,,,102 nM,"CC#CCOc1ccc(SC(C(=O)NO)c2ccc(Cl)cc2)cc1 (centres unmarked) [Example 80, 2-{[4-(2-butynyloxy)phenyl]sulfanyl}-2-(4-chlorophenyl)-N-hydroxyacetamide]",4%,
,,,1500 nM,336 nM,52 nM,"CC#CCOc1ccc([S+]([O-])C(C(=O)NO)C2CCCCC2)cc1 (centres unmarked) [Example 74, 2-{[4-(2-butynyloxy)phenyl]sulfinyl}-2-cyclohexyl-N-hydroxyacetamide]",31%,"IC50 (MMP-13; IC50, read-out: MMP13): 93.5 nM"
0.5%,47.4%,0.5%,,,109 nM,"CC#CCOc1ccc(S(=O)(=O)C(C(=O)NO)c2ccc(F)cc2)cc1 (centres unmarked) [Example 97, 2-{[4-(2-butynyloxy)phenyl]sulfonyl}-2-(4-fluorophenyl)-N-hydroxyacetamide]",10%,
,,,1400 nM,142 nM,,"CC#CCOc1ccc(S(=O)(=O)C(C)(Cc2cccnc2)C(=O)NO)cc1 (centres unmarked) [Example 3, 2-(4-But-2-ynyloxy-phenylsulfonyl)-N-hydroxy-2-methyl-3-pyridin-3-ylpropionamide]",,"THP (% inhibition) (THP-1 cells): 14%; IC50 ([1]; Table 1): 15.7 nM; IC50 (MMP-13; Table 1, read-out: MMP13 IC50): 69 nM"
,,,15000 nM,3000 nM,,"CC#CCOc1ccc(SC(CCCCCC)C(=O)NO)cc1 (centres unmarked) [Example 6, 2-(4-But-2-ynyloxy-phenylsulfanyl)-octanoic acid hydroxamide]",,"THP (% inhibition) (THP-1 cells): 5%; IC50 ([1]; Table 1): 105 nM; IC50 (MMP-13; Table 1, read-out: MMP13 IC50): 2000 nM"
0%,56%,,,,65 nM,"CC#CCOc1ccc(S(=O)(=O)C(C(=O)NO)c2cccc(Br)c2)cc1 (centres unmarked) [Example 106, 2-{[4-(2-Butynyloxy)phenyl]sulfonyl}-2-(3-bromophenyl)-N-hydroxyacetamide]",-5%,
23.3%,56.8%,27.3%,,,48.1 nM,"CC#CCOc1ccc(S(=O)(=O)C(C(=O)NO)c2ccc(OC)cc2)cc1 (centres unmarked) [Example 79, 2-{[4-(2-butynyloxy)phenyl]sulfonyl}-N-hydroxy-2-(4-methoxyphenyl) acetamide]",,
6.6%,0.8%,13.5%,,,50 nM,"CC#CCOc1ccc(SC(C(=O)NO)c2ccccc2)cc1 (centres unmarked) [Example 111, 2-{[4-(2-Butynyloxy)phenyl]sulfanyl}-2-phenyl-N-hydroxyacetamide]",-10%,

SMILES,inhibition at 10 µM (MMP-1),inhibition at 10 µM (MMP-13; read-out: MMP13),inhibition at 10 µM (MMP-9),IC50 (MMP-1),IC50 (MMP-9),"IC50 [1, 2]",inhibition at 3 µM (THP-1 cells),also measured
"CC#CCOc1ccc([S+]([O-])[C@H](C(=O)NO)c2ccc(OC)cc2)cc1 (single isomer, unassigned) [Example 78]",5.9%,54.5%,32.7%,,,,13%,
"CC#CCOc1ccc(S(=O)(=O)C(C(=O)NO)C2CCCCC2)cc1 (centres unmarked) [Example 75, 2-{[4-(2-butynyloxy)phenyl]sulfonyl}-2-cyclohexyl-N-hydroxyacetamide]",34.6%,,68.2%,,,,39%,"IC50 (MMP-13; IC50, read-out: MMP13): 708 nM"
"CC#CCOc1ccc(S(=O)(=O)C(C(=O)NO)C(C)C)cc1 (centres unmarked) [Example 110, 2-{[4-{2-butynyloxy)phenyl]sulfonyl}-2-isopropyl-N-hydroxyacetamide]",39.6%,,,,5140 nM,17 nM,25%,"IC50 (MMP-13; IC50, read-out: MMP13): 1260 nM"
